Entries after “also recorded” stand apart in the source; their conditions may differ.
How the values were obtained:
[1] = system: Staphylococcus aureus strain SH1000; experiment: Peptides direct antibacterial properties, broth micro-dilution, growth by OD 600 nm; type: cell-based; settings: for direct antibacterial effect on S. aureus growth: broth micro-dilution in THB, inoculum 5 x 10^5 CFU/mL, 37°C, OD 600 nm every 5 min for 12 h, concentration range of peptide
Protocol: All experiments used GFP-labelled Staphylococcus aureus strain SH1000, transformed with a GFP-expressing plasmid pCM29 to constitutively express GFP, as previously described ([Boero et al., 2021]). Bacteria were grown overnight in Todd-Hewitt broth (THB) with 10 μg/mL chloramphenicol to reach stationary phase.
Peptides were diluted at different concentrations in α-MEM supplemented with 10% FBS or in THB when testing their effects on macrophages or bacteria, respectively.
Peptides direct antibacterial properties were determined by broth micro-dilution method. Overnight bacterial suspension was diluted in THB to reach a final inoculum concentration of 5 x 10^5 colony-forming units per mL (CFU/mL). Bacterial suspension and peptides dilutions were mixed in equal parts in a flat-bottom 96-well plate in triplicates in a total volume of 200 μL, and incubated at 37°C. Bacterial growth was monitored by measuring OD (600nm) continuously every 5 minutes for 12 h in Clariostar plate reader (BMG labtech) with gentle shaking before each measurement.

[2] = system: primary human macrophages; experiment: LPS-induced TNF-α and IL-10 release of macrophages (ELISA); type: cell-based; settings: for inhibition of macrophage LPS-mediated activation: 10 ng/mL LPS O111:B4, 24 h, TNF-α and IL-10 by ELISA
Protocol: Isolated monocytes were seeded in a 24-well plate at a density of 300,000 cells/well, except where otherwise stated. Monocytes were differentiated to macrophages by culture for 7 days in α-Minimum Essential Medium (α-MEM) supplemented with 10% (v/v) hyclone fetal bovine serum (hyFBS), 100 U/mL penicillin- streptomycin (1% p/s), and 40 ng/mL human recombinant M-CSF. Culture media was refreshed after 3-4 days.
Monocytes were seeded in a 96-well plate at a density of 150,000 cells/well. After 7 days differentiation, macrophages were incubated with fresh media containing a range of peptides concentrations alone or in combination with 10 ng/mL LPS O111:B4 from E. coli. After 24 h stimulation, the supernatant was collected to measure LDH levels or TNF-α and IL-10 by ELISA, according to the manufacturer’s instructions. Both LDH and ELISA assays were performed in three independent experiments with measurements in triplicate.

[3] = system: primary human macrophages; experiment: Macrophage phenotype markers CD80 / CD163 by flow cytometry; type: cell-based; settings: 24 h, selected peptide concentrations alone or with LPS, n = 3
Protocol: After 7 days differentiation, macrophages were incubated with fresh media with LPS, IL-4, and optimal concentrations of peptides alone or in combination with LPS. After 24 h stimulation, macrophages were detached from the culture plate and processed for staining into a 96-well plate. All washing steps were performed with cold 0,1% (w/v) bovine serum albumin (BSA)/PBS and centrifugation at 5 min, 500 x g. A panel of surface molecules was selected, based on previous reports for human macrophage polarization ([Ambarus et al., 2012]). The staining solutions were prepared by diluting the following fluorochrome-conjugated antibodies in PBS with 0,1% BSA and 1% (v/v) heat-inactivated human serum: CD16 (1:50); CD80 (1:50); CD163 (1:50). As a negative control, staining solution without antibodies was used. Cells were incubated with staining solutions for 30 min on ice, in the dark. Markers expression was measured via flow cytometer (FACSVerse, BD) and data analyzed using FlowJo.

[4] = system: primary human macrophages; experiment: Human cytokine array G5 after LPS and peptide stimulation; type: cell-based; settings: 24 h LPS and peptides, n = 2
Protocol: Qualitative expression of various cytokines and chemokines was measured in duplicate for selected conditions by human cytokine array G5, according to the manufacturer’s instructions.

[5] = system: primary human macrophages infected with S. aureus; experiment: Confocal imaging, manual counting of intracellular bacteria ("peptides during infection" model); type: cell-based; settings: 30 min infection, 50 randomly chosen cells
Protocol: According to the “peptides during infection” model, after 30 min infection cells were harvested and fixed as described for flow cytometry analysis. Cells membranes were stained with 3 μg/mL Alexa Fluor 647-labelled Wheat Germ Agglutinin (WGA) for 10 min at RT, on a shaking plate. Then, samples were transferred to CELLview slide previously coated with poly-L-lysine, and imaged on a Leica TCS SP5 microscope with a HCX PL AP CS 63x/1.40-0.60 OIL objective (Leica Microsystems). For each condition, the number of intracellular bacteria was counted in 50 randomly chosen cells. Images were adjusted for publication using Image J Fiji.

[6] = system: primary human macrophages infected with S. aureus; experiment: "peptides during differentiation" model, S. aureus phagocytosis by flow cytometry; type: cell-based; settings: for contribution to phagocytosis: peptides during monocyte differentiation, then infection
Protocol: (§1) To assess the peptides influence on macrophages antibacterial properties, three different infection models studying intracellular bacteria survival, as outlined in Figures 3A, 5A, and 5D, were adopted. In all models, selected concentrations of peptides were used: 65 μM IDR-1018; 10 μM CATH-2; 10 μM LL-37.
(§2) The first step concerned the “peptides during infection” model, where cells were washed twice before incubation with the peptides for 24 h and subsequently bacteria were directly added to the culture without any washing step. In a subsequent step we assessed the “peptides during differentiation”, where peptides were added to the differentiation media for the first 3 days and removed after the regular media change; cells were washed twice before infection. In the third step we tested “peptides with MSCs”, where macrophages were cultured in presence of MSCs and peptides for 24 h; before infection cells were washed twice. All washing steps, before or after infection, were performed using warm α-MEM.
(§3) In all three models described, the same S. aureus infection protocol was applied. An overnight bacterial culture was diluted in α-MEM to reach a final inoculum concentration of 1 x 10^7 CFU/mL, and opsonized in 5% human pooled serum (HPS) for 15 min at 37°C. Opsonized S. aureus was added to the culture at a multiplicity of infection (MOI) = 1, meaning 1 bacterium per eukaryotic cell. To synchronize bacterial uptake, plates were centrifuged for 5 min, 110 x g at RT, and then moved to the incubator at 37°C, 5% CO2 for additional 25 min or 24 h. To study intracellular bacterial survival, after 30 min the cells were washed twice and cultured in media supplemented with 100 μg/mL gentamicin and 20 μg/mL lysostaphin for 1 h. Afterwards, cells were washed twice and incubated in media with only 5 μg/mL gentamicin. This treatment allows only intracellular bacteria to survive, as both gentamicin and lysostaphin are unable to penetrate mammalian cell membranes within short time periods ([Hamza et al., 2013]; [Hamza and Li, 2014]).
(§4) Samples were analyzed by flow cytometry and CFU counting at 30 min and 24 h after infection. Cells for flow cytometry were detached from the culture plate using 1mM DPBS/EDTA in combination with gentle scraping. When macrophages were cultured together with MSCs, samples were first trypsinzed and then scraped in DPBS/EDTA if cells were still attached to the bottom of the culture plate. Cells were moved to a 96-well plate and fixed in paraformaldehyde 4% before analysis. Samples were measured with MACSquant VYB (Miltenyi Biotech) flow cytometer and data analyzed with FlowJo. […] Non-infected samples were used to set GFP fluorescence baseline and define the proportion of infected, GFP-positive cells.

[7] = system: intracellular S. aureus in primary human macrophages; experiment: "peptides during infection" model, intracellular S. aureus by CFU counting; type: cell-based
Protocol: as §1, §2, §3
(§5) To quantify the numbers of intracellular bacteria, cells were lysed with Triton X 0,1% and then plated on Todd-Hewitt agar plates in serial dilutions. Plates were incubated overnight at 37°C after which colonies were counted.

[8] = system: intracellular S. aureus in primary human macrophages; experiment: "peptides during differentiation" model, intracellular S. aureus by CFU counting; type: cell-based; settings: 30 min and 24 h, n = 6
Protocol: as §1, §2
as §3, with “This treatment allows only intracellular bacteria to survive, as both gentamicin and lysostaphin are unable to penetrate mammalian cell membranes within short time periods ([Hamza et al., 2013]; [Hamza and Li, 2014]).” left out
as §5

[9] = cited from earlier work; for binding to LPS: "silent killing" mechanism, ref Coorens et al., 2017b
Excerpt: One may argue that the inhibition of LPS-mediated activation of macrophages was not caused by peptides’ direct interaction with the immune cells. It was shown via a mechanism named “silent killing” that CATH-2 and LL-37 bind LPS to inhibit macrophages receptors activation ([Coorens et al., 2017b]).

[10] = system: primary human macrophages infected with S. aureus; experiment: "peptides during infection" model, S. aureus phagocytosis by flow cytometry; type: cell-based
Protocol: as §1, §2, §3, §4

[11] = system: primary human macrophages; settings: ref Pena et al., 2013; cited from earlier work
Excerpt: In addition to TNF-α and IL-10, the peptides affected the expression of several other cytokines involved in immune cells’ activation and recruitment at the inflammation site (Figure 2E).

[12] = peptides 24 h before and during infection, 65 μM IDR-1018, 10 μM CATH-2, 10 μM LL-37, MOI 1, 30 min, n = 9
[13] = peptides in differentiation medium for the first 3 days, MOI 1, 30 min, n = 6

Row | Substance | direct antibacterial effect on S. aureus growth ([1]; n = 3) | inhibition of macrophage LPS-mediated activation [2] | polarization of macrophages toward M1 (CD80) or M2 (CD163) phenotype [3] | bacterial uptake by macrophages, manual counting of intracellular bacteria [5] | contribution to phagocytosis [6] | effect on S. aureus surviving intracellularly (CFU), 30 min and 24 h ([7]; n = 9) | macrophage intracellular killing (CFU) [8] | binding to LPS [9] | bacterial load, geometric mean of GFP signal, 30 min [10, 12] | other results
1 | LLGDFFRKSKEKIGKEFKRIVQRIKDFLRNLVPRTES [LL-37, human cathelicidin host defense peptide, InVivogen] | did not show antibacterial effects at any concentration tested | inhibited macrophage lipopolysaccharide-mediated activation | kept macrophages in an intermediate state | did not provide such effect | had no impact | no effects were observed | had no impact | bind LPS |  | expression of MIP-1β, RANTES and MCP-1,2,3 [4]: stronger inhibition of the LPS activation of macrophages
2 | VRLIVAVRIWRR-NH2 [IDR-1018, bovine-derived cathelicidin host defense peptide, CPC Scientific] | did not show antibacterial effects at any concentration tested | inhibited macrophage lipopolysaccharide-mediated activation |  | reduced the bacterial uptake by macrophages |  | no effects were observed | had no impact |  | markedly decrease phagocytosis | concentration from which the start of S. aureus exponential growth is delayed ([1]; THB, 12 h growth curve, OD 600 nm, n = 3): ≥ 65 µM; concentration required for inhibition of LPS-mediated activation, compared among peptides ([2]; 10 ng/mL LPS, 24 h, TNF-α and IL-10 ELISA): higher concentrations of IDR-1018 were required; fraction of infected cells (macrophages that phagocytosed at least 1 bacterial cell), 30 min [10, 12]: significantly reduced the number of infected cells; amount of phagocytosed S. aureus, 24 h ([10]; peptides during infection model, 24 h after infection, n = 9 (Figure S5)): reduced the amount of phagocytosed S. aureus; number of internalized bacteria (geometric mean of GFP signal), 30 min [6, 13]: significantly reduced; proportion of infected macrophages, 30 min [6, 13]: significantly reduced; polarization of macrophages toward M1 or M2 phenotype [11]: did not correlate with the polarization of macrophages toward a clear M1 or M2 phenotype; binding affinity to LPS ([9]; ref Wieczorek et al., 2010): did not show significant binding affinity to LPS
3 | RFGRFLRKIRRFRPKVTITIQGSARF-NH2 [CATH-2, chicken cathelicidin host defense peptide, CPC Scientific] | had direct antibacterial properties | inhibited macrophage lipopolysaccharide-mediated activation | kept macrophages in an intermediate state | reduced the bacterial uptake by macrophages | lost its contribution to phagocytosis; also recorded: had no impact |  | had no impact | bind LPS | slightly reduced the bacterial load in macrophages | concentration arresting S. aureus growth, relative to that needed to inhibit macrophage LPS-mediated activation ([1]; THB, 12 h growth curve, compared with LPS inhibition assay): 10 times lower; number of S. aureus surviving intracellularly (CFU), 30 min ([7]; 10 μM CATH-2, 65 μM IDR-1018, 10 μM LL-37, n = 9): significantly reduced; number of S. aureus surviving intracellularly (CFU), 24 h ([7]; gentamicin and lysostaphin after 30 min, n = 9): not statistically significant; also recorded: comparable to the non-stimulated group

Source: publication PMC9563556, “Antibacterial and anti-inflammatory properties of host defense peptides against Staphylococcus aureus” (iScience, 2022)
